What was measured:
Details in all cases: lowest concentration inhibiting 95% of growth (OD600); with BLi relebactam 4 μg/mL; 22 hours, 35±2° C.
[1] = test system: Acinetobacter baumannii expressing TEM-1, AmpC, and Oxa-24/40 (CL6188); format: cell-based
Protocol: (§1) The concentrations of compounds required to inhibit the growth of various strains of bacteria were determined in an assay that assessed bacterial growth by measuring optical density at 600 nm (OD600). The bacterial strains tested included the clinical strains Escherichia co/i expressing NDM-1 (CLB30016), Klebsiella pneumoniae expressing KPC-1 (CL6569), Acinetobacter baumannii expressing TEM-1, AmpC, and Oxa-24/40 (CL6188) and Pseudomonas aeruginosa expressing AmpC (CL5701). All compounds were tested in the presence of a f3 lactamase inhibitor (BLi, Relebactam) in 384-well microplates.
(§2) The clinical strains were stored as frozen single use stocks, thawed and diluted into 1.1× cation-adjusted Mueller-Hinton 11 broth to achieve approximately 2×10^5 CFU/mL. Test compounds were dissolved in DMSO and diluted 1:50 in the assay, resulting in a final concentration range of 100 μM to 0.098 μM. On the day of the assay, 1 μL of test compound was added to the plate followed by 4 μL of 50 μg/mL BLi in MOPS buffer and 45 μL of diluted bacteria. Plates were centrifuged at 1000 rpm for 30 seconds, shaken at approximately 800 rpm for 1 minute, and incubated at 35±2° C. for 22 hours. The concentration of BLi used in the assay was 4 μg/mL. At the end of the incubation, absorbance at 600 nm was determined using a spectrophotometer. Inhibition was quantitated by identifying the lowest concentration of test compound that was required to inhibit […] of the growth of the bacteria.

[2] = test system: Escherichia co/i expressing NDM-1 (CLB30016); experiment: Growth inhibitory concentration (OD600), E. coli CLB30016; format: cell-based, Escherichia coli
Protocol: as §1, §2

[3] = test system: Pseudomonas aeruginosa expressing AmpC (CL5701); experiment: Growth inhibitory concentration (OD600), P. aeruginosa CL5701; format: cell-based
Protocol: as §1, §2

[4] = test system: Klebsiella pneumoniae expressing KPC-1 (CL6569); experiment: Growth inhibitory concentration (OD600), K. pneumoniae CL6569; format: cell-based
Protocol: as §1, §2

Row | Structure (SMILES) | AB_CL6188 MITC95 [1] | EC_CLB30016 MITC95 [2] | PA_CL5701 MITC95 [3] | KP_CL6569 MITC95 [4]
1 | CC1(C)[C@H](NC(=O)/C(=N\O[C@](C)(C(=O)O)[C@H]2CCc3cc(C(=N)N[C@H]4CC[C@](O)(CN)CC4)ccc3O2)c2csc(N)n2)C(=O)N1OS(=O)(=O)O [Compound 59, (S)-2-((R)-6-(N-((1s,4S)-4-(aminomethyl)-4-hydroxycyclohexyl)carbamimidoyl)chroman-2-yl)-2-((((Z)-1-(2-aminothiazol-4-yl)-2-(((S)-2,2-dimethyl-4-oxo-1-(sulfooxy)azetidin-3-yl)amino)-2-oxoethylidene)amino)oxy)propanoic acid] | 3.125 µM | 12.5 µM | 1.563 µM | 0.3906 µM
2 | CC1(C)[C@H](NC(=O)/C(=N\O[C@](C)(C(=O)O)[C@H]2CCc3cc(C(=N)N[C@H]4C[C@]5(CCNC5)C4)ccc3O2)c2csc(N)n2)C(=O)N1OS(=O)(=O)O [Compound 22, (S)-2-((R)-6-(N-((2r,4S)-6-azaspiro[3.4]octan-2-yl)carbamimidoyl)chroman-2-yl)-2-((((Z)-1-(2-aminothiazol-4-yl)-2-(((S)-2,2-dimethyl-4-oxo-1-(sulfooxy)azetidin-3-yl)amino)-2-oxoethylidene)amino)oxy)propanoic acid] | 3.125 µM | 3.125 µM | 1.563 µM | 0.3906 µM
3 | CC1(C)[C@H](NC(=O)/C(=N\O[C@](C)(C(=O)O)[C@H]2CCc3cc(C(=N)N[C@H]4C[C@](CN)(CO)C4)ccc3O2)c2csc(N)n2)C(=O)N1OS(=O)(=O)O [Compound 78, (S)-2-((R)-6-(N-((1r,3R)-3-(aminomethyl)-3-(hydroxymethyl)cyclobutyl)carbamimidoyl)chroman-2-yl)-2-((((Z)-1-(2-aminothiazol-4-yl)-2-(((S)-2,2-dimethyl-4-oxo-1-(sulfooxy)azetidin-3-yl)amino)-2-oxoethylidene)amino)oxy)propanoic acid] | 4.688 µM | 6.25 µM | 1.563 µM | 0.3906 µM
4 | CC1(C)[C@H](NC(=O)/C(=N\O[C@](C)(C(=O)O)[C@H]2CCc3cc(C(=N)N[C@]4(C)CC[C@@H](N)CC4)ccc3O2)c2csc(N)n2)C(=O)N1OS(=O)(=O)O [Compound 71, (S)-2-((R)-6-(N-((1r,4R)-4-amino-1-methylcyclohexyl)carbamimidoyl)chroman-2-yl)-2-((((Z)-1-(2-aminothiazol-4-yl)-2-(((S)-2,2-dimethyl-4-oxo-1-(sulfooxy)azetidin-3-yl)amino)-2-oxoethylidene)amino)oxy)propanoic acid] | 4.688 µM | 9.375 µM | 1.563 µM | 0.7813 µM
5 | CC1(C)[C@H](NC(=O)/C(=N\O[C@](C)(C(=O)O)[C@H]2CCc3cc(C(=N)N[C@H]4C[C@](N)(CCO)C4)ccc3O2)c2csc(N)n2)C(=O)N1OS(=O)(=O)O [Compound 86, (S)-2-((R)-6-(N-((1s,3S)-3-amino-3-(2-hydroxyethyl)cyclobutyl)carbamimidoyl)chroman-2-yl)-2-((((Z)-1-(2-aminothiazol-4-yl)-2-(((S)-2,2-dimethyl-4-oxo-1-(sulfooxy)azetidin-3-yl)amino)-2-oxoethylidene)amino)oxy)propanoic acid] | 6.25 µM | 6.25 µM | 1.563 µM | 0.3906 µM
6 | CC1(C)[C@H](NC(=O)/C(=N\O[C@](C)(C(=O)O)[C@H]2CCc3cc(C(=N)N[C@H]4CC[C@H](N)CC4)ccc3O2)c2csc(N)n2)C(=O)N1OS(=O)(=O)O [Compound 32, (S)-2-((R)-6-(N-((1r,4R)-4-aminocyclohexyl)carbamimidoyl)chroman-2-yl)-2-((((Z)-1-(2-aminothiazol-4-yl)-2-(((S)-2,2-dimethyl-4-oxo-1-(sulfooxy)azetidin-3-yl)amino)-2-oxoethylidene)amino)oxy)propanoic acid] | 3.125 µM | 3.125 µM | 1.563 µM | 0.3906 µM
7 | CC1(C)[C@H](NC(=O)/C(=N\O[C@](C)(C(=O)O)[C@H]2CCc3cc(C(=N)N[C@H]4C[C@@](N)(C(O)CO)C4)ccc3O2)c2csc(N)n2)C(=O)N1OS(=O)(=O)O (stereo partly drawn) [Compound 99, (S)-2-((R)-6-(N-((1R,3R)-3-amino-3-((R)-1,2-dihydroxyethyl)cyclobutyl)carbamimidoyl)chroman-2-yl)-2-((((Z)-1-(2-aminothiazol-4-yl)-2-(((S)-2,2-dimethyl-4-oxo-1-(sulfooxy)azetidin-3-yl)amino)-2-oxoethylidene)amino)oxy)propanoic acid] | 12.5 µM | 6.25 µM | 3.125 µM | 0.7813 µM
8 | COCC[C@]1(N)CC[C@@H](NC(=N)c2ccc3c(c2)CC[C@H]([C@](C)(O/N=C(\C(=O)N[C@@H]2C(=O)N(OS(=O)(=O)O)C2(C)C)c2csc(N)n2)C(=O)O)O3)CC1 [Compound 63, (S)-2-((R)-6-(N-((1s,4S)-4-amino-4-(2-methoxyethyl)cyclohexyl)carbamimidoyl)chroman-2-yl)-2-((((Z)-1-(2-aminothiazol-4-yl)-2-(((S)-2,2-dimethyl-4-oxo-1-(sulfooxy)azetidin-3-yl)amino)-2-oxoethylidene)amino)oxy)propanoic acid] | 6.25 µM | 12.5 µM | 3.125 µM | 0.7813 µM
9 | CC1(C)[C@H](NC(=O)/C(=N\O[C@](C)(C(=O)O)[C@H]2CCc3cc(C(=N)NC4CCC(N)(CO)CC4)ccc3O2)c2csc(N)n2)C(=O)N1OS(=O)(=O)O (stereo partly drawn) [Compound 69, (S)-2-((R)-6-(N-((1r,4R)-4-amino-4-(hydroxymethyl)cyclohexyl)carbamimidoyl)chroman-2-yl)-2-((((Z)-1-(2-aminothiazol-4-yl)-2-(((S)-2,2-dimethyl-4-oxo-1-(sulfooxy)azetidin-3-yl)amino)-2-oxoethylidene)amino)oxy)propanoic acid] | 4.688 µM | 6.25 µM | 1.563 µM | 0.3906 µM
10 | CC1(C)[C@H](NC(=O)/C(=N\O[C@](C)(C(=O)O)[C@H]2CCc3cc(C(=N)N[C@H]4C[C@](N)(C(O)CO)C4)ccc3O2)c2csc(N)n2)C(=O)N1OS(=O)(=O)O (stereo partly drawn) [Compound 100, (S)-2-((R)-6-(N-((1S,3S)-3-amino-3-((R)-1,2-dihydroxyethyl)cyclobutyl)carbamimidoyl)chroman-2-yl)-2-((((Z)-1-(2-aminothiazol-4-yl)-2-(((S)-2,2-dimethyl-4-oxo-1-(sulfooxy)azetidin-3-yl)amino)-2-oxoethylidene)amino)-oxy)propanoic acid] | 6.25 µM | 6.25 µM | 1.563 µM | 0.7813 µM
11 | CC1(C)[C@H](NC(=O)/C(=N\O[C@](C)(C(=O)O)[C@H]2CCc3cc(C(=N)N[C@]4(C)CC[C@](N)(CO)CC4)ccc3O2)c2csc(N)n2)C(=O)N1OS(=O)(=O)O [Compound 135, (S)-2-((R)-6-(N-((1r,4R)-4-amino-4-(hydroxymethyl)-1-methylcyclohexyl)-carbamimidoyl)chroman-2-yl)-2-((((Z)-1-(2-aminothiazol-4-yl)-2-(((S)-2,2-dimethyl-4-oxo-1-(sulfooxy)azetidin-3-yl)amino)-2-oxoethylidene)amino)oxy)propanoic acid] | 12.5 µM | – | 3.125 µM | 0.7813 µM
12 | CC1(C)[C@H](NC(=O)/C(=N\O[C@](C)(C(=O)O)[C@H]2CCc3cc(C(=N)N[C@H]4C[C@@](N)(CCO)C4)ccc3O2)c2csc(N)n2)C(=O)N1OS(=O)(=O)O [Compound 87, (S)-2-((R)-6-(N-((1r,3R)-3-amino-3-(2-hydroxyethyl)cyclobutyl)carbamimidoyl)chroman-2-yl)-2-((((Z)-1-(2-aminothiazol-4-yl)-2-(((S)-2,2-dimethyl-4-oxo-1-(sulfooxy)azetidin-3-yl)amino)-2-oxoethylidene)amino)oxy)propanoic acid] | 4.688 µM | 6.25 µM | 1.563 µM | 0.3906 µM

— patent US20250019376A1, “CHROMANE AMIDINE MONOBACTAM ANTIBIOTICS” (priority 2021, published 2025)
